# Measured values as given in publication PMC4971421, “Redox-Dependent Modulation of T-Type Ca^2+ Channels in Sensory Neurons Contributes to Acute Anti-Nociceptive Effect of Substance P” (Antioxidants & Redox Signaling, 2016).
# Where two headings read alike, the source gives them in different places.
# Tests used:
# CaV3.2 = target: T1, CaV3.2 (Homo sapiens, UniProt O95180); assay: Recombinant CaV3.2 current in HEK293 cells co-transfected with NK1 receptor, perforated patch; format: cell-based
# T1 construct: expressed in transfected cells; host or cells: HEK293 cells, transient transfection with Lipofectamine 2000; The CaV3.2 cDNA was a gift of Dr E. Perez-Reyes; The NK1 cDNA was from the Missouri S&T cDNA Resource Center
# Method: (§1) DRG neurons from adult male Sprague–Dawley rats (170–180 g) were dissociated as previously described ([13], [29]) and cultured in DMEM supplemented with GlutaMax I, 10% fetal calf serum, penicillin (50 U/ml), and streptomycin (50 μg/ml) on glass coverslips that were coated with poly-D-lysine for 2–5 days in a humidified incubator (37°C, 5% CO2). No growth factors were added to the culture media. HEK 293 cells were cultured in the same DMEM media; cells were passaged every 2 days. Human NK1 receptor (GenBank accession No. AY462098) complementary DNA (cDNA) was from the Missouri Science and Technology cDNA Resource Center. WtCaV3.1 (GenBank accession No. AF027984), wtCaV3.2 (GenBank accession No. AF051946), CaV3.1Q172H, and CaV3.2H191Q were kindly provided by Dr E. Perez-Reyes (University of Virginia). HEK293 cells were transfected using Lipofectamine 2000 (Invitrogen) according to the manufacturer's instructions. ST101 was synthesized in house; Z944 was from Toronto Research Chemicals; PTX was from Enzo Life Science; and FluoZin-3AM was from Life Technologies. All other chemicals were from Sigma.
# In recordings from HEK 293 cells, amphotericin B-perforated patch-clamp technique was used ([13]). The pipette solution contained the following (in mM): 155 CsCl; 10 HEPES; 1 EGTA; and 4 MgCl2 supplemented with amphotericin B (250 μg/ml), pH 7.4 adjusted with CsOH. The bath solution was the same as for DRG neuron recordings. The access resistance was typically within 8–12 MΩ.
# In experiments with H2O2, 3% agar-salt (3 M KCl) bridges were used. Concentration dependence of CaV3.2 channel inhibition by zinc was fit to the two-component logistic function:
# where N0 is the total amount of zinc-binding sites, N0(max1) is the amount of high-affinity binding sites, N0(max2) is the amount of low-affinity binding sites, Imax is the maximal CaV3.2 peak current amplitude, IC50 is the [Zn^2+] necessary for half-maximal inhibition, and nH is the Hill coefficient. The concentration dependency of the S9SP effect was fit to the one-component logistic function: […]
# [1] = test system: intracellular zinc levels in DRG neurons; assay: Intracellular zinc imaging with FluoZin-3AM; format: cell-based, rat; conditions: for effect on zinc levels elevated by ZnPy: in the presence of 10 μM ZnPy
# Method: Changes in the intracellular zinc levels were evaluated using fluorescence imaging. DRG cultures were loaded with FluoZin-3AM (5 μM for 30 min at 37°C in the presence of 0.02% pluronic F-127). Cells were washed with extracellular bath solution composed of the following (in mM): 160 NaCl; 2.5 KCl; 2 CaCl2; 1 MgCl2; and 10 HEPES (pH 7.4 adjusted with NaOH); they were imaged using a Leica SP5 fluorescence imaging system assembled on a Leica DMI6000 microscope and illuminated with 488 nm light for 1200 ms (400 Hz) with a 2 s interval. Solutions were applied using a gravity perfusion system.
# [2] = test system: T-type Ca^2+ channels (LVA Ca^2+ current) in DRG neurons; assay: LVA (T-type) Ca2+ current, whole-cell patch clamp, cultured small-diameter DRG neurons; format: cell-based, rat; conditions: for effect on S9SP-mediated T-type current inhibition: 1 μM S9SP
# Method: as §1
# All recordings were made using Multiclamp 700B amplifier in combination with pCLAMP 10.4 software (Molecular Devices). Voltage-clamp recordings from DRG neurons were made using whole-cell patch clamp. The standard bath solution contained the following (in mM): 150 TEA-Cl; 2.5 CsCl; 2.5 CaCl2; 10 HEPES; 0.5 MgCl2; and 10 glucose (pH 7.4 adjusted with CsOH). The standard pipette solution contained the following (in mM): 110 CsCl; 3 MgCl2; 10 EGTA; 10 HEPES; 3 Mg-ATP; and 0.6 GTP (pH 7.4 adjusted with CsOH). The access resistance was typically within 4–8 MΩ. T-type calcium currents (LVA) were measured by 50 ms square voltage pulses to −40 mV from a holding potential of −90 mV. HVA currents were measured by 200 ms square voltage pulses to 0 mV from a holding potential of −90 mV.
# where y is the current inhibition; A1 and A2 are the maximum and minimum effects, respectively; x is the S9SP concentration; and nH is the Hill coefficient.
# rat hind paw [3] = assay: Hargreaves test, paw withdrawal latency to noxious heat; format: in vivo; conditions: hind-paw injection 50 μl; 0.1–10 nmol/site; 8 min after injection
# Method: For measurement of thermal hyperalgesia, the change in the latency of hind-paw withdrawal in response to noxious heat was recorded using the Hargreaves’ plantar method (Ugo Basile) at 8 min after the hind-paw injection of drugs; the heat source was set to 25% of the maximal intensity.
# rat hind paw [4] = assay: BK-induced nocifensive behavior, pre-injection protocol; format: in vivo; conditions: pre-injection 50 μl; 1–10 nmol/site, 5 min before BK 10 nmol/site
# Method: Sprague–Dawley rats (body weight, 170–180 g) were grouped randomly and allowed to acclimate for at least 30 min in a transparent observation chamber before the experiment. Animals received a 50-μl intraplantar injection of ST101 (0.001–10 nmol/site), BK (10 nmol/site), RTG (1–10 nmol/site), Z944 (0.05–5 nmol/site), SP (0.5–5 nmol/site), or saline, respectively, into the right hind paw. For evaluation of the acute “spontaneous” pain, animals were video-recorded for 30 min after the injection and protective (“nocifensive”) behavior was analyzed as time spent licking, biting, lifting, and flinching the injected paw. The analyses were performed by an observer who was unaware of treatment allocations. In the pre-injection experiments, the right hind paw of the animal received a pre-injection of 50 μl Z944 (0.05–0.5 nmol/site), RTG (1–10 nmol/site), SP (0.5 nmol/site), Z944 (0.05–0.5 nmol/site)+RTG (1 nmol/site), or saline; 5 min later, on the same paw, the animal received a further 50-μl injection of BK (10 nmol/site) together with the pre-injection drug mix. Nocifensive behavior was analyzed as described earlier.
# The in vivo CaV3.2 knock-down was performed as described earlier ([3]) by using the same ODN sequences that were synthesized by SBS Genetech. AS ODNs had the following sequence: […]. The mismatch ODNs of the following sequence were used as a negative control: […]. The mismatch ODN was not complementary to any known nucleotide sequence. ODNs were reconstituted in saline before injection. ODNs (12.5 μg/rat in 10 μl of saline) or saline were injected intrathecally (i.t.) between the L5 and L6 dorsal spinous processes as described earlier ([3], [42]) under isoflurane anesthesia. The treatment was repeated twice daily for 4 days. The pain tests were performed on the next day after the last injection. After behavioral testing, animals were humanly sacrificed; lumbar DRGs were extracted and analyzed for the knock-down efficiency by comparing the Cacna1h mRNA levels in lumbar (L4 to L6) DRGs of the saline-injected, mismatch ODN-injected, and AS ODN-injected animals using RT-PCR. The same Cacna1h and Gapdh primers as in siRNA experiments were used for RT-PCR.
# T1 sequence (O95180 whole entry): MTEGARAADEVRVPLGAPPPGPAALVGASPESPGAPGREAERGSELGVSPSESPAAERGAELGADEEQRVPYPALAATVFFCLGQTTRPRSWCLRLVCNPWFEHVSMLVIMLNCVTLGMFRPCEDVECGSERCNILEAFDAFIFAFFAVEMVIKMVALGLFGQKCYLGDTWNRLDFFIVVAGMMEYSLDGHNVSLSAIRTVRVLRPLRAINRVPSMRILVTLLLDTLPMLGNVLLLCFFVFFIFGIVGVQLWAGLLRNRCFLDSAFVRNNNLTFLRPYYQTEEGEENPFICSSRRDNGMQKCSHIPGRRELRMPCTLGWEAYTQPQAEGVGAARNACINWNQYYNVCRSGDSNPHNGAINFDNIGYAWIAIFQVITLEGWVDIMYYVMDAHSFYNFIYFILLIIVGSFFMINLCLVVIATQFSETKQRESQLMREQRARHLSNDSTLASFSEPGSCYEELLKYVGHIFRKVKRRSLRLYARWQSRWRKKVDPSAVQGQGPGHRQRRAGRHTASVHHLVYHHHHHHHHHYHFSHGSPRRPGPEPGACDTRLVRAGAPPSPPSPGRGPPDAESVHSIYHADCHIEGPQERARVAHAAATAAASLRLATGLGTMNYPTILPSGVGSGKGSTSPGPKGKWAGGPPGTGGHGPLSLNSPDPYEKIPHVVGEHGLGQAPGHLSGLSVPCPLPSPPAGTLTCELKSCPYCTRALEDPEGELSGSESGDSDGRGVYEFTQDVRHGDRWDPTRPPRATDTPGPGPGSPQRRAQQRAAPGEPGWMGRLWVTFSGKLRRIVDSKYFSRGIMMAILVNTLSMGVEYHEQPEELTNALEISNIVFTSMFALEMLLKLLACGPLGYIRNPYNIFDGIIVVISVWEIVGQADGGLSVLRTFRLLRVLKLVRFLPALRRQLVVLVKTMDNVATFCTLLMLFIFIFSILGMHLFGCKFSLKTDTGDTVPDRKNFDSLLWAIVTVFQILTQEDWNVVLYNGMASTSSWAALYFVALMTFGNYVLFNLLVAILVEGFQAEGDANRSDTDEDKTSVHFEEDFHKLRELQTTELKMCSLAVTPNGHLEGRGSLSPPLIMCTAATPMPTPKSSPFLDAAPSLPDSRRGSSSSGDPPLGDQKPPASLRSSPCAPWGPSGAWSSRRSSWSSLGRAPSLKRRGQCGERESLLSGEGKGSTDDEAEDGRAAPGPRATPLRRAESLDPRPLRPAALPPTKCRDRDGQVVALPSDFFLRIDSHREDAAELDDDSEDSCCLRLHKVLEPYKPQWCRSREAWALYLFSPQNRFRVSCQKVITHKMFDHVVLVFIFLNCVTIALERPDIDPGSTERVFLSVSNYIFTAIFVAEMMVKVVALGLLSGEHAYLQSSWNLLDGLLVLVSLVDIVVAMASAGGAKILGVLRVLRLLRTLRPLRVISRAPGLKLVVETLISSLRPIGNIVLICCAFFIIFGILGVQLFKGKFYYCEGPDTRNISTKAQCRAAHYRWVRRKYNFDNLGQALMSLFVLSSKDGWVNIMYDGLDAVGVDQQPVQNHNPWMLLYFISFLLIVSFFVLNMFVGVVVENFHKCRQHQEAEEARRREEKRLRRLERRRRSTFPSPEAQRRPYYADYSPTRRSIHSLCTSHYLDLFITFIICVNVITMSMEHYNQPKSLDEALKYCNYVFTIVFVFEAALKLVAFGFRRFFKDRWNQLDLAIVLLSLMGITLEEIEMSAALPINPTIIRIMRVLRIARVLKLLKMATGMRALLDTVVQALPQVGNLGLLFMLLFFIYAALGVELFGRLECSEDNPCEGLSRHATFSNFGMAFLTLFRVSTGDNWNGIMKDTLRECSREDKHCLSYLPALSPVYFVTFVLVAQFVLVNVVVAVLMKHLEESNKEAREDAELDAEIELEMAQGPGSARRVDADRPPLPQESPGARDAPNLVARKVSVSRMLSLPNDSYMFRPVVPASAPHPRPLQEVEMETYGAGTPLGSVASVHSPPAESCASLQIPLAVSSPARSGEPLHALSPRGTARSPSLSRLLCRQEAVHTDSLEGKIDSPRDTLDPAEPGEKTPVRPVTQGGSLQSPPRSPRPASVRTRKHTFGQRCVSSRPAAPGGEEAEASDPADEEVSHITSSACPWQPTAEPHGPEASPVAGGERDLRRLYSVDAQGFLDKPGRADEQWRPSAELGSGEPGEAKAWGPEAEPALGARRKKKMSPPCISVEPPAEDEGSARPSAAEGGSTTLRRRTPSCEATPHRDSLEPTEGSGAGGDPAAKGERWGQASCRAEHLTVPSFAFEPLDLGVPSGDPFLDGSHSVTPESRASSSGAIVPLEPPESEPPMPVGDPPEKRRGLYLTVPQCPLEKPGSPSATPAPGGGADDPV
compound,measurement,setting,value
[Cl-].[Cl-].[Zn+2] [ZnCl2],maximal inhibition at the high-affinity site,CaV3.2; S9SP-treated cells (1 μM),44.1% ± 5.1%
same,IC50,"CaV3.2; after S9SP treatment, 1 μM S9SP in all ZnCl2 solutions, read-out: IC50(1), high-affinity site, zinc inhibition of CaV3.2",0.35 ± 0.25 nM
same,IC50,"CaV3.2; after S9SP treatment, 1 μM S9SP in all ZnCl2 solutions, read-out: IC50(2), low-affinity site, zinc inhibition of CaV3.2",923 ± 582 nM
same,maximal inhibition at the high-affinity site,CaV3.2; control cells,9.9% ± 11.3%
same,IC50,"CaV3.2; control conditions, two-component logistic fit, 6–12 experiments, read-out: IC50(1), high-affinity site, zinc inhibition of CaV3.2",0.25 nM
same,IC50,"CaV3.2; control conditions, two-component logistic fit, 6–12 experiments, read-out: IC50(2), low-affinity site, zinc inhibition of CaV3.2",495 ± 326 nM
same,intracellular zinc levels (FluoZin-3 fluorescence),[1]; 1.5 mM,large responses
same,inhibition of LVA current,"[2]; 750 nM, n = 9",~25%
"CSCC[C@H](NC(=O)[C@H](CC(C)C)NC(=O)CN(C)C(=O)[C@H](Cc1ccccc1)NC(=O)[C@H](Cc1ccccc1)NC(=O)[C@H](CCC(N)=O)NC(=O)[C@H](CCC(N)=O)NC(=O)[C@@H]1CCCN1C(=O)[C@H](CCCCN)NC(=O)[C@@H]1CCCN1C(=O)[C@@H](N)CCCNC(=N)N)C(N)=O [S9SP, [Sar^9]-Substance P]","current amplitude in the presence of S9SP, % of basal value","CaV3.2; 1 μM S9SP, wtCaV3.2, mean ± SEM, n = 13, SEM",69.8% ± 6.8%
"c1ccc(CN(CCN(Cc2ccccn2)Cc2ccccn2)Cc2ccccn2)nc1 [TPEN, N,N,N′,N′-Tetrakis(2-pyridylmethyl)ethylenediamine]",effect on SP- and H2O2-induced inhibitions of recombinant CaV3.2,CaV3.2,prevented
same,effect on CaV3.2 currents in control conditions,CaV3.2; 10 μM,only marginal augmentation
same,effect on zinc levels elevated by ZnPy,[1]; 20 μM,completely reversed the increase in fluorescence
same,reversal of S9SP-induced LVA current inhibition,"[2]; 10 μM TPEN bath application, still in the presence of 1 μM S9SP",completely reversed
"Arg-Pro-Lys-Pro-Gln-Gln-Phe-Phe-Sar-Leu-Met[O2]-NH2 [S9M11SP, [Sar^9, Met(O2)^11]-Substance P]",LVA current inhibition,[2]; 1 μM,quantitatively similar to that of S9SP
"COc1ccccc1CN[C@H]1CCCN[C@H]1c1ccccc1.Cl.Cl [CP-99994, (2S,3S)-3-(2-Methoxybenzylamino)-2-phenylpiperidine dihydrochloride]",effect on S9SP-induced LVA current inhibition,"[2]; 3 μM, 30 min pre-incubation, co-applied with 1 μM S9SP",abolished the effect of S9SP
"COCC(=O)O[C@]1(CCN(C)CCCc2nc3ccccc3[nH]2)CCc2cc(F)ccc2[C@@H]1C(C)C [MIB, mibefradil]",sensitivity of LVA currents to inhibitor,[2]; 3 μM,sensitive
"CCOC(=O)Nc1ccc(NCc2ccc(F)cc2)cc1N [RTG, retigabine]",paw withdrawal latency on radiant heat exposure,rat hind paw [3],produced a similar effect
same,BK-induced nociception,rat hind paw [4],significantly attenuated
pertussis toxin [PTX],effect on S9SP-mediated T-type current inhibition,[2]; 400 ng/ml overnight pre-treatment,completely abolished
OO [H2O2],effect on recombinant CaV3.2,CaV3.2; H2O2,inhibited
same,inhibition of LVA current,[2]; 300 μM bath application,~20%
CCCCCC[C@H]1C(=O)O[C@H](C)[C@H](NC(=O)c2cccc(NC=O)c2O)C(=O)O[C@@H](C)[C@@H]1OC(=O)CC(C)C [antimycin A],inhibition of LVA current,[2]; 1 μM,~25%
"O[C@@H](CS)[C@@H](O)CS (racemic) [DTT, dithiothreitol]",effect on zinc levels elevated by ZnPy,[1]; 1 mM,did not alter the elevated zinc levels
same,effect on LVA current amplitude on its own,[2]; 1 mM,did not significantly affect
same,prevention of S9SP effect on LVA current when applied together,[2]; 1 mM DTT before and during 1 μM S9SP,rendered S9SP ineffective
same,reversal of S9SP-induced LVA current inhibition,[2]; 1 mM DTT in continued presence of 1 μM S9SP,completely reversed
same,reversal of antimycin A-induced LVA current inhibition,"[2]; 1 mM DTT, 1 μM antimycin A",completely reversed
same,reversal of H2O2-induced LVA current inhibition,"[2]; 1 mM DTT, 300 μM H2O2",reversed
"CN(C)CCCn1cc(C2=C(c3c[nH]c4ccccc34)C(=O)NC2=O)c2ccccc21 [BIM I, bisindolylmaleimide I]",effect on S9SP-mediated T-type current inhibition,"[2]; 200 nM, 20 min pretreatment",without a significant effect
